For one data set, the system named is DNA/EtBr complex. Kind of data set: DNA/EtBr fluorescence emission in solution. The settings on record: 5 μg/ml DNA, 2 μg/ml EtBr. Type of data set: binding. How it is done: The fluorescence emission of DNA-dye ligands such as ethidium bromide (EtBr) are examined spectroscopically in solution.
Changes in fluorescence intensity were noticeable at 2 μM.

Data set [1] deals with Sub-mitochondrial Particle (SMP). The settings on record: cited from earlier work.
A further data set relates to Beef Heart Mitochondria. The conditions noted are these: cited from earlier work.
The subject of the next data set is Fish. The conditions noted are these: at 96 hr; cited from earlier work.
Data set [2] has as its system Photobacterium phosphoreum. The conditions noted are these: cited from earlier work.
For a further data set, the system named is actin-cofilin complex. Description: Native PAGE gel analysis of actin-cofilin complex. Type of data set: binding. The conditions noted are these: for Effective (E50) concentration, disappearance of the actin-cofilin band: native PAGE gels, 25 μM actin-cofilin complex, metal mass without counter ions. How it is done: Four heavy metal ions (Cd, Cu, Hg and Zn) were examined over the concentration range 1-1000 μg L^−1.
Combinations of actin, cofilin and DNaseI were mixed at equimolar concentrations (˜20-25 μm) in a Eppendorf tube and incubated for 15 min at 22° C. Actin, cofilin, DNaseI and their complexes were then separated on a 10% w/v native gel. […] Instead, the rate of migration is determined by the ratio of charge to volume. Actin (MT 43 kDa) has a net negative charge.

The structures appear in SMILES notation.

For the molecule `[Cl][Hg][Cl]` [HgCl2], the “Concentration at which changes in fluorescence intensity were noticeable” value in the data set with DNA/EtBr complex came out at 2 µM. Moreover, the “Concentration range of concentration-dependent quenching of fluorescent signal” value in the data set on DNA/EtBr complex (excitation 520 nm) is 1 to 100 µM.

With `[Cd+2]` [Cd^2+], the “Effective (E50) concentration, SMP” value in data set [1] is 520 µg/L. Moreover, in the data set with Beef Heart Mitochondria, the “Effective (E50) concentration, BHM” value is 158 µg/L. Moreover, the “Effective (E50) concentration, Fish” value in the data set with Fish was 630 µg/L. The “Microtox mean lethal concentration” value in data set [2] is 41400 µg/L. In addition, in the data set on actin-cofilin complex, the “Effective (E50) concentration, disappearance of the actin-cofilin band” value (from here on “Effective … of the actin-cofilin band”) lay in the range of 800 to 1200 µg/L.

As to `[Cu+2]` [Cu^2+], the “Effective (E50) concentration, SMP” value in data set [1] was 300 µg/L. In addition, the “Effective (E50) concentration, BHM” value with Beef Heart Mitochondria is 93 µg/L. Moreover, the “Effective (E50) concentration, Fish” value in the data set with Fish is 530 µg/L. Also, in data set [2], the “Microtox mean lethal concentration” value is 9300 µg/L. In addition, the “Effective … of the actin-cofilin band” value in the data set with actin-cofilin complex lay within 400 to 600 µg/L. Also, the “Concentration at which the actin-cofilin complex is first noticeably affected” value in the data set on actin-cofilin complex (native gel) is recorded as “approximately 200 μg L^−1”.

On to `[Cl-].[Cl-].[Zn+2]` [Zn^2+, ZnCl2], for which, in data set [1], the “Effective (E50) concentration, SMP” value was 1700 µg/L. Also, the “Effective (E50) concentration, BHM” value in the data set with Beef Heart Mitochondria was 80 µg/L. For the same molecule, the “Effective (E50) concentration, Fish” value in the data set with Fish is 2990 µg/L. For the same molecule, in data set [2], the “Microtox mean lethal concentration” value is 33000 µg/L. In the data set on actin-cofilin complex (250-2500 μg L^−1), the “Density of the actin-cofilin complex” value is “decreased the density of the actin-cofilin complex”. The “Effective … of the actin-cofilin band” value in the data set on actin-cofilin complex was 900 to 1000 µg/L.

Values taken from US20020018997A1, “Biomolecular toxicity assay” (priority 2000, published 2002).
